Source: patent US8309586B2, “Glucokinase activators and pharmaceutical compositions containing the same as an active ingredient” (LG Life Sciences Ltd., priority 2007, dated 2012)

Assays:
male C57BL/6 mice = assay: Blood glucose lowering abilities after single oral administration in male C57BL/6 mouse; format: in vivo; conditions: 30 mg/kg single oral dose, fed ad libitum, medium: distilled water
Protocol: The glucokinase activators according to the present invention were orally administered in a single dose in the amount of 30 mg/kg body weight to male C57BL/6 mice for 24 h. The media were selected depending on their solubilities from distilled water, pH 1.2 HCl buffer solution, 0.5% methyl cellulose distilled water solution, 10% Gelucire/pH 1.2 HCl buffer solution (1/1). The glucokinase activators were dissolved in the selected media to the medium volume of 0.1 ml/10 g body weight on the basis of the body weight measured on the day of experiment.
Blood glucose was measured by cutting the tail vein before 1 h (time=−1) from the measurement of blood glucose, collecting blood from the tail vein at immediately before the administration of the glucokinase activator (time=0), and at 1, 2, 4, 8, 12, 24 h after administration, loading on the automatic glucometer (Accu-Chek® Active, Roche, USA), dropping 5 μl of the blood to a yellow pad of the Accu-Chek® Active glucose strip, and recording the measured value.
Mice involved in the experiment were divided into groups (n=10, in the case of media group n=4) on one day before the experiment so that each group has uniform average and standard deviation for blood glucose after 4 hour fasting. Mice were fed ad libitum.
The blood glucose lowering abilities in % of the representative compounds with respect to the 100% of media control were shown in the following Table 2.

[1] = tested on: Glucokinase known as hexokinase IV (human GK isoform 1, pancreas form and human GK isoform 2, liver form); assay: Glucokinase enzymatic activity assay (G6PDH-coupled, NADH absorbance at 340 nm); format: biochemical; conditions: 5 mM glucose, 1 mM ATP, 37 nM GK, 10 min at room temperature
How it was run: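 His-tagged human GK isoform 1 (pancreas) or 2 (liver), E. coli-expressed and Ni-purified, 37 nM, with 5 mM glucose, 1 mM ATP, 1 mM NAD and G6PDH in 25 mM Hepes/KCl, 2 mM MgCl2, 1 mM DTT. Ran 10 min at room temperature, read as NADH at 340 nm. AC1.5 is the compound concentration giving 1.5-fold activity.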

| SMILES | Hypoglycemic ability (% medium): blood glucose AUC for 24 h with respect to 100% of media control (male C57BL/6 mice) [%] | AC1.5 (the compound concentration at which the enzymatic activity is increased by 1.5 times) [1] [nM] |
| --- | --- | --- |
| O=C(CO)N1CCN(CC[C@@H]2CSC(c3cc4cc(Cl)cc(NC5CCCC5)c4[nH]3)=N2)CC1 [Example 99, 1-(4-{2-[(R)-2-(5-chloro-7-cyclopentylamino-1H-indol-2-yl)-4,5-dihydro-thiazol-4-yl]-ethyl}-piperazin-1-yl)-2-hydroxy-ethanone] | 72 | 5 |
| Cc1cc(NC2CCCC2)c2[nH]c(C3=N[C@H](CCC(=O)O)CS3)cc2c1 [Example 158, 3-[(R)-2-(7-cyclopentylamino-5-methyl-1H-indol-2-yl)-4,5-dihydro-thiazol-4-yl]-propionic acid] | 66 | 16 |
| O=C(O)CC[C@@H]1CSC(c2cc3cc(Oc4ccccc4)cc(NC4CCCC4)c3[nH]2)=N1 [Example 159, 3-[(R)-2-(7-cyclopentylamino-5-phenoxy-1H-indol-2-yl)-4,5-dihydro-thiazol-4-yl]-propionic acid] | 63 | 17 |
| O=C(O)CC[C@@H]1CSC(c2cc3cccc(NC4CCCC4)c3[nH]2)=N1 [Example 164, 3-[(R)-2-(7-cyclopentylamino-1H-indol-2-yl)-4,5-dihydro-thiazol-4-yl]-propionic acid] | 73 | 25 |
| CCOc1cc(NC2CCCC2)c2[nH]c(C3=N[C@H](CCC(=O)O)CS3)cc2c1 [Example 167, 3-[(R)-2-(7-cyclopentylamino-5-ethoxy-1H-indol-2-yl)-4,5-dihydro-thiazol-4-yl]-propionic acid] | 64 | 28 |
